Results from ChEMBL document CHEMBL1201862, “PubChem BioAssay data set” (2004).
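96-well plates; 48 h exposure; 5 concentrations. Endpoints by linear interpolation between flanking doses. Not reached: highest tested concentration assigned. GI50: concentration for 50% inhibition of growth.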 Activity calls are given as the source filed them. No stated cut-off is given here; in the data, active = GI50 up to about 1.1 µM and inactive = higher.

Experiments:
Test in all cases: NCI anticancer screen, dose series, 48 h
[1] = tested on: 786-0
[2] = tested on: A498
[3] = tested on: A549
[4] = tested on: ACHN
[5] = tested on: BT-549
[6] = tested on: CAKI-1
[7] = tested on: CCRF-CEM
[8] = tested on: COLO 205
[9] = tested on: DU-145
[10] = tested on: EKVX
[11] = tested on: HCT-116
[12] = tested on: HCT-15
[13] = tested on: HL-60
[14] = tested on: HOP-62
[15] = tested on: HOP-92
[16] = tested on: HT-29
[17] = tested on: Hs-578T
[18] = tested on: IGROV-1
[19] = tested on: K562
[20] = tested on: KM12
[21] = tested on: LOX IMVI
[22] = tested on: M14
[23] = tested on: MCF7
[24] = tested on: MDA-MB-231
[25] = tested on: MDA-MB-435
[26] = tested on: MDA-N
[27] = tested on: MOLT-4
[28] = tested on: Malme-3M
[29] = tested on: NCI-H226
[30] = tested on: NCI-H23
[31] = tested on: NCI-H460
[32] = tested on: NCI-H522
[33] = tested on: NCI/ADR-RES
[34] = tested on: OVCAR-3
[35] = tested on: OVCAR-4
[36] = tested on: OVCAR-5
[37] = tested on: OVCAR-8
[38] = tested on: PC-3
[39] = tested on: RPMI-8226
[40] = tested on: RXF 393
[41] = tested on: SF-268
[42] = tested on: SF-295
[43] = tested on: SF-539
[44] = tested on: SK-MEL-28
[45] = tested on: SK-MEL-2
[46] = tested on: SK-MEL-5
[47] = tested on: SK-OV-3
[48] = tested on: SN12C
[49] = tested on: SNB-19
[50] = tested on: SNB-75
[51] = tested on: SR
[52] = tested on: SW-620
[53] = tested on: T47D
[54] = tested on: TK-10
[55] = tested on: U-251
[56] = tested on: UACC-257
[57] = tested on: UACC-62
[58] = tested on: UO-31
[59] = tested on: HCC 2998

O=C1C2CCN(CC2)C1(CO)CO
GI50 [1]: 28.2 µM (inactive)
GI50 [2]: > 51.1 µM (inactive)
GI50 [3]: 78.3 µM (inactive)
GI50 [4]: 17.9 µM (inactive)
GI50 [5]: 19.8 µM (inactive)
GI50 [6]: 19.2 µM (inactive)
GI50 [7]: 5.06 µM (inactive)
GI50 [8]: 18.7 µM (inactive)
GI50 [9]: 17.3 µM (inactive)
GI50 [10]: 49.7 µM (inactive)
GI50 [11]: 17 µM (inactive)
GI50 [12]: 16.1 µM
GI50 [13]: 38.7 µM (inactive)
GI50 [14]: > 88.5 µM (inactive)
GI50 [15]: 22 µM (inactive)
GI50 [16]: 28 µM (inactive)
GI50 [17]: 31.3 µM (inactive)
GI50 [18]: > 89.5 µM (inactive)
GI50 [19]: 23.6 µM (inactive)
GI50 [20]: 64.7 µM (inactive)
GI50 [21]: 16 µM (inactive)
GI50 [22]: 18.3 µM (inactive)
GI50 [23]: 24.7 µM (inactive)
GI50 [24]: 20.9 µM (inactive)
GI50 [25]: 61.5 µM (inactive)
GI50 [26]: 39.1 µM (inactive)
GI50 [27]: 7.01 µM (inactive)
GI50 [28]: 18.2 µM (inactive)
GI50 [29]: 28.1 µM (inactive)
GI50 [30]: 25.2 µM (inactive)
GI50 [31]: 66.7 µM (inactive)
GI50 [32]: 13.1 µM (inactive)
GI50 [33]: 24.5 µM (inactive)
GI50 [34]: 15.9 µM (inactive)
GI50 [35]: 19.4 µM (inactive)
GI50 [36]: 26 µM (inactive)
GI50 [37]: 28.1 µM (inactive)
GI50 [38]: > 79.1 µM (inactive)
GI50 [39]: 17.8 µM (inactive)
GI50 [40]: 21.1 µM (inactive)
GI50 [41]: > 100 µM (inactive)
GI50 [42]: > 100 µM (inactive)
GI50 [43]: 40.9 µM (inactive)
GI50 [44]: 26.4 µM (inactive)
GI50 [45]: 71.8 µM (inactive)
GI50 [46]: 47.4 µM (inactive)
GI50 [47]: 60.7 µM (inactive)
GI50 [48]: 17.6 µM (inactive)
GI50 [49]: > 100 µM (inactive)
GI50 [50]: 57.7 µM (inactive)
GI50 [51]: 20 µM (inactive)
GI50 [52]: 18.2 µM (inactive)
GI50 [53]: 19.5 µM (inactive)
GI50 [54]: 17.3 µM (inactive)
GI50 [55]: 41.1 µM (inactive)
GI50 [56]: 18.6 µM (inactive)
GI50 [57]: 25.1 µM (inactive)
GI50 [58]: 16.1 µM (inactive)

C[N+]1(C(CO)Cc2c[nH]c3ccccc23)Cc2ccccc2C1 (stereo unspecified)
GI50 [1]: > 100 µM (inactive)
GI50 [2]: 66.5 µM (inactive)
GI50 [3]: 59.4 µM (inactive)
GI50 [4]: > 100 µM (inactive)
GI50 [5]: 77.6 µM (inactive)
GI50 [6]: > 100 µM (inactive)
GI50 [7]: > 100 µM (inactive)
GI50 [8]: > 100 µM (inactive)
GI50 [9]: > 100 µM (inactive)
GI50 [10]: 62.4 µM (inactive)
GI50 [59]: > 100 µM (inactive)
GI50 [11]: > 100 µM (inactive)
GI50 [12]: > 100 µM
GI50 [13]: > 100 µM (inactive)
GI50 [14]: > 100 µM (inactive)
GI50 [15]: 92.5 µM (inactive)
GI50 [16]: 92.3 µM (inactive)
GI50 [17]: > 100 µM (inactive)
GI50 [18]: > 100 µM (inactive)
GI50 [19]: 89.7 µM (inactive)
GI50 [20]: > 100 µM (inactive)
GI50 [21]: > 100 µM (inactive)
GI50 [22]: 35.8 µM (inactive)
GI50 [23]: > 100 µM (inactive)
GI50 [24]: > 100 µM (inactive)
GI50 [25]: > 100 µM (inactive)
GI50 [26]: > 100 µM (inactive)
GI50 [27]: > 100 µM (inactive)
GI50 [28]: 13.7 µM (inactive)
GI50 [29]: > 100 µM (inactive)
GI50 [30]: > 100 µM (inactive)
GI50 [31]: > 100 µM (inactive)
GI50 [32]: 49.3 µM (inactive)
GI50 [33]: > 100 µM (inactive)
GI50 [34]: > 100 µM (inactive)
GI50 [35]: > 100 µM (inactive)
GI50 [36]: 89.3 µM (inactive)
GI50 [37]: > 100 µM (inactive)
GI50 [38]: > 100 µM (inactive)
GI50 [39]: 76.6 µM (inactive)
GI50 [40]: > 100 µM (inactive)
GI50 [41]: > 100 µM (inactive)
GI50 [42]: > 100 µM (inactive)
GI50 [44]: 31.7 µM (inactive)
GI50 [45]: > 100 µM (inactive)
GI50 [46]: 32.6 µM (inactive)
GI50 [47]: > 100 µM (inactive)
GI50 [48]: > 100 µM (inactive)
GI50 [49]: > 100 µM (inactive)
GI50 [50]: > 100 µM (inactive)
GI50 [51]: > 100 µM (inactive)
GI50 [52]: > 100 µM (inactive)
GI50 [53]: > 100 µM (inactive)
GI50 [54]: > 100 µM (inactive)
GI50 [55]: > 100 µM (inactive)
GI50 [56]: 44 µM (inactive)
GI50 [57]: > 100 µM (inactive)
GI50 [58]: > 100 µM (inactive)
